# Reference: US7270968B2, “PTH analogs for renal osteodystrophy and related uses” (The General Hospital Corporation, priority 2000, dated 2007)
# Where two headings read alike, the source gives them in different places.
# Legend:
# [1] = test system: Gs-linked PTH receptors; settings: F1 cells and osteoblastic subclones; cited from earlier work
# [2] = test system: CPTHR; experiment: Competitive displacement of 125I-[Tyr34]hPTH(19-84) radioligand in C59 (OC59) cells; type: binding, mouse; settings: for Binding to the CPTHR: Example 2, either alone or in combination
# Procedure: The human PTH peptides shown were tested for their ability to displace the ^125I-[Tyr^34]hPTH(19-84) tracer in C59 cells. Experiments were performed as described in FIG. 1. Results are expressed as the percentage of maximal specific binding observed in the absence of competing ligand and are shown as mean±standard deviation of triplicates in this representative experiment.
# OC59 cells were incubated at 15° C. for 4 hr with ^125I[Tyr^34]hPTH(19-84) tracer (150,000 cpn/well) plus the indicated competing human PTH peptides. Results are means of triplicates.
# The [Tyr^34]hPTH(19-84) peptide was radioiodinated with Na[^125I](2000 Ci/mmol) by the chloramine-T method and purified by HPLC, as previously described (Inomata, N., et al., Endocrinology 136:4732-4740 (1995)). For binding experiments, cells (100,000 cells/ml) were plated in 24-well dishes and cultured at 33° C. for 7 to 14 days. Confluent monolayers then were washed with 0.5 ml binding buffer [100 mM NaCl, 5 mM KCl, 2 mM CaCl2, 50 mM Tris-HCl (pH 7.8) plus 5% heat-inactivated horse serum] before incubation with ^125I-[Tyr^34]hPTH-(19-84) (100,000-200,000 cpm/well) in 0.5 ml binding buffer for 4 h at 15° C. Receptor number was ascertained by Scatchard analysis, using [Tyr^34]hPTH-(19-84) or hPTH(1-84) as competing ligand. […] In some experiments, cells were washed with acidic buffer (50 mM glycine, 150 mM NaCl, pH 4.0) to remove residual bound ligand, prior to addition of radioligand.
# [3] = test system: OC14 cells; experiment: Cell death by trypan blue staining in OC14 cells; type: cell-based, mouse
# Procedure: OC14 cells were plated, cultured at 33° C. for 3 days and then incubated at 39° C. for 5-7 days before addition of PTH peptides for a further 16 hr, followed by trypan blue staining (see Example 1). A) Human PTH 1-84 dose response, B) Response to hPTH(1-84), 100 nM and hPTH(39-84), 1000 nM, C) Response to [Tyr^34]hPTH(24-84), 100 nM, D) Caspase dependance (“C”=controls) The Caspase-3 inhibitor DEVD (“D”) was added 1 hr prior to addition of 100 nM hPTH(1-84) (“P”). Results are expressed as mean±SD of quadruplicate determinations of the percentage of nonvital trypan blue-stained cells. * p<0.05, ** p<0.01.
# Briefly, cells were plated at 50,000 cells/well in 24-well dishes at 33° C. and shifted to nonpermissive conditions (39° C.) after 2 days. Cells were grown at 39° C. for an additional 4-6 days in α-MEM supplemented with 2.5% of FBS and 1% PS and then treated with different hormones for additional 16-18 hr. Non-adherent cells were combined with adherent cells that were released from the cultures with trypsin-EDTA, centrifuged and resuspended in 0.1% trypan blue solution.
# [4] = test system: CPTHR; experiment: Downregulation of CPTHR binding in C59 cells after pretreatment; type: cell-based, mouse; settings: for Downregulation of CPTHR binding: exposure 24 hr; for Radioligand binding, % of controls after drug removal: 24 h after removal; for Reduction of specific binding / Reduction of specific 125I-[Tyr34]hPTH(19-84) binding: preincubation 16 h
# Procedure: Specific binding, is expressed as mean ± standard deviation of triplicates. * p<0.05, ** P<0.01.
# For binding experiments, cells (100,000 cells/ml) were plated in 24-well dishes and cultured at 33° C. for 7 to 14 days. […] Receptor number was ascertained by Scatchard analysis, using [Tyr^34]hPTH-(19-84) or hPTH(1-84) as competing ligand. […] In some experiments, cells were washed with acidic buffer (50 mM glycine, 150 mM NaCl, pH 4.0) to remove residual bound ligand, prior to addition of radioligand.
# (1 mM), forskolin (10 μM), insulin (100 ng/mL), IGF-1 ([…]) or dexamethasone (100 nM).
# [5] = test system: Gs-linked PTH receptors; experiment: Cyclic AMP accumulation in C cells (OC1, OC14, OC59); type: cell-based, mouse; settings: three C cells
# Procedure: The buffer then was rapidly aspirated, the plates were frozen in liquid nitrogen, and the frozen cells were subsequently thawed directly into 0.5 ml of 50 mM HCl. Cell-associated cAMP in the acid extracts was measured using an RIΛ kit (NUN Life Science Products, Boston, Mass., U.S.A.). Results were expressed as picomoles of cAMP produced per well over 15 min.
# [6] = target: T1, PTH1R (Homo sapiens, UniProt Q03431); settings: cited from earlier work
# T1 sequence (Q03431 27-593): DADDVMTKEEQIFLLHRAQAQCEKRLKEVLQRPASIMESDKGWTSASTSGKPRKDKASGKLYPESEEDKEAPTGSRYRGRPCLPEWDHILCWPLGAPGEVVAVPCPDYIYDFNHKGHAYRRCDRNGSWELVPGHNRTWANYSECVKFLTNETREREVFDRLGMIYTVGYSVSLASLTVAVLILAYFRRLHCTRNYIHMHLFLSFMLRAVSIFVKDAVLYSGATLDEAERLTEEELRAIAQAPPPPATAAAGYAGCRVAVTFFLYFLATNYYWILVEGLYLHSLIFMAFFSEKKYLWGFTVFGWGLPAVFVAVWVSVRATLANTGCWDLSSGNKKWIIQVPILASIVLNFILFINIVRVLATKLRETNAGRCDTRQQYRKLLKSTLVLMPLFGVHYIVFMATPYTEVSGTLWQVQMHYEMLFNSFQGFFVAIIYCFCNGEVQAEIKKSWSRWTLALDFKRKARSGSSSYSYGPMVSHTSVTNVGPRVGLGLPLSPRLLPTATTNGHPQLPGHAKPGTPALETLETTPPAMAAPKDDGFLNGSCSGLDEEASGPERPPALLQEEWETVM
# [7] = test system: OC14 cells; experiment: Apoptosis by TUNEL assay in OC cells; type: cell-based, mouse; settings: 100 nM, 6 hr
# Procedure: (§1) Cells plated on glass coverslips and maintained at 33° C. for 33 days were shifted to 39° C. for 5-7 days before addition of 100 nM hPTH(1-84) (B, D) or vehicle alone (A, C) for 6 hr. At the end of the incubations, cells were fixed and stained with Hoechst 33258 (A and B) or for TUNEL (C and D) (see Example 1). Arrows indicate apoptotic cells. 200× magnification.
# (§2) The pyknotic fragmentation of nuclei typical of apoptotic cells was detected using Hoechst-33258 fluorescent dye (Sigma Co., St. Louis, Mo., U.S.A.). Briefly, cells were cultured on glass coverslips and maintained in culture at nonpermissive conditions for 4-6 days in (α-MEM supplemented with 2-5% of FBS and 1% PS. After exposure to the test hormones for 6 hr, culture medium was aspirated and cells were fixed in 4% paraformaldehyde in phosphate buffered solution and then stained with Hoechst-33258 ([…]) for 5 min at room temperature. Cells were washed and mounted with glycerol-PBS (9:1, v/v). The stained nuclei were visualized by fluorescence microscopy using DAPI filter. In some experiments, apoptotic cells were detected by the terminal deoxynucleotidyl transferase-mediated nick end labeling (TUNEL) reaction, using the In Situ Cell Death Detection Kit from Roche Molecular Biochemicals (Indianapolis, Ind., U.S.A.) following the manufacturer's instruction.
# [8] = test system: C×43 expression; experiment: Connexin 43 immunocytochemical staining in OC cells; type: cell-based, mouse; settings: 100 nM, 2 hr
# Procedure: OC14 cells were plated on glass coverslips at 72,000 cells/cm^2, cultured at 33° C. for 2 days and then shifted at 39° C. for 3-5 days before stimulation with CPTHR ligands. OC14 cells were treated for 2 hr with (A) vehicle alone, (B) 100 nM hPTH(1-84) or (C) 1000 nm hPTH(39-84). Cells were fixed and stained for C×43 expression as described (see Example 1).
# For Immunocytochemical analysis, cells were plated on glass chamber slides at 72,000 cells/cm^2, cultured for two days at 33° C. and then shifted for an additional 4-6 days at 39° C. Cells were treated with vehicle alone (0.1% TFA) or with the appropriate hormone for the time indicated. The immunocytochemical staining was performed as previously described (Kato, Y., et al., J. Bone Miner. Res. 12:2014-2023 (1997)). Briefly, cells were fixed in 3% paraformaldehyde/2% sucrose in PBS and permeabilized for 5 min. with 0.05% Triton-X 100 diluted in PBS. The fixed slides were blocked in 5% BSA in TBS-T buffer for 2 h at room temperature. The cells then were incubated with a 1:125 dilution of anti-C×43 monoclonal antibody for 30 min at room temperature. The bound antibody was detected using a Vectastain ABC kit, followed by staining with VIP substrate according to manufacturer's instructions (Vector Laboratories, Burlingame, Calif.). Counter staining was performed using 0.5% methyl green. […]
# [9] = test system: OC14 cells; experiment: Apoptosis by Hoechst 33258 DNA staining in OC cells; type: cell-based, mouse; settings: 100 nM, 6 hr
# Procedure: as §1, §2
molecule,measurement,setting,value
hPTHrP(1-36): Human PTH-related peptide fragment 1-36,cAMP response,[1],no detectable cAMP response
"hPTH(24-54): Short synthetic human PTH peptide spanning both binding domains 24-27 and 53-54 (LRKKLQDVHNFVALGAPLAPRDAGSQRPRKK; Parathyroid hormone; UniProt P01270 55-85, looked up, fragment)",EC50,"[2]; Example 2, PTH1R-null CPTHR-expressing calvarial-derived clonal cells, read-out: apparent EC50, competition of [Tyr34]125I-hPTH(19-84) tracer",20 µM
"hPTH(50-60): Short synthetic human PTH peptide spanning residues 50-60 (RPRKKEDNVLV; Parathyroid hormone; UniProt P01270 81-91, looked up, fragment)",Binding to the CPTHR,[2],failed to bind
hPTH(1-34): Amino-terminal human PTH fragment 1-34,Effect on cell death (trypan blue),[3]; concentrations as high as 1000 nM,inactive
same,Displacement of the tracer,[2]; concentrations up to 1000 nM,did not displace the tracer significantly
same,Downregulation of CPTHR binding,[4]; 1 μM,No downregulation
same,cAMP response,[1],no detectable cAMP response
same,cAMP response,[5],absence of a detectable cAMP response
CCCCCCCCCCCCCC(=O)O[C@@H]1[C@@H](C)[C@@]2(O)[C@@H](C=C(CO)C[C@]3(O)C(=O)C(C)=C[C@@H]23)[C@H]2C(C)(C)[C@]12OC(C)=O [TPA],"Radioligand binding, % of controls after drug removal",[4],63%
same,Reduction of specific binding,[4]; 10 nM,48±12%
"hPTH(20-30): Short synthetic human PTH peptide spanning residues 20-30 (RVEWLRKKLQD; Parathyroid hormone; UniProt P01270 51-61, looked up, fragment)",Binding to the CPTHR,[2],failed to bind
"PTH(53-84): Carboxyl fragment 53-84 of intact PTH (KKEDNVLVESHEKSLGEADKADVNVLTKAKSQ; Parathyroid hormone; UniProt P01270 84-115, looked up, fragment)",Binding and activation of the PTH1R,[6],neither bind nor activate
insulin: insulin,Downregulation of CPTHR binding,[4]; 100 ng/mL,No downregulation
"hPTH(1-84): Recombinant human parathyroid hormone (1-84), the intact hormone",Concentration of maximal effect upon cell death,"[3]; 16 hr, trypan blue",10 nM
same,EC50,"[3]; 16 hr, trypan blue, read-out: EC50, effect upon cell death",~0.0001 µM
same,Change in trypan blue-stained cells,[3]; after 16 hr,doubling
same,"Apoptosis, TUNEL immunocytochemical assay",[7],Increased apoptosis
same,Reduction of specific 125I-[Tyr34]hPTH(19-84) binding,[4]; 200 nM,19±5%
same,Reduction of specific 125I-[Tyr34]hPTH(19-84) binding,[4]; 1000 nM,66±7%
same,Expression of C×43 by immunostaining,[8],increased the expression of C×43
same,cAMP response,[1],no detectable cAMP response
same,"Nuclear pyknosis and chromatin condensation, Hoechst dye 33258",[9],increased nuclear pylulosis ;aid chromatin condensation
same,cAMP response,[5],absence of a detectable cAMP response
"C=C1/C(=C\C=C2/CCC[C@]3(C)[C@@H]([C@H](C)CCCC(C)(C)O)CC[C@@H]23)C[C@@H](O)C[C@@H]1O [1,25(OH)2D3]",Downregulation of CPTHR binding,[4]; 10 nM,No downregulation
"hPTH(39-84): C-terminal human PTH fragment 39-84, purchased from Peninsula (APLAPRDAGSQRPRKKEDNVLVESHEKSLGEADKADVNVLTKAKSQ; Parathyroid hormone; UniProt P01270 70-115, looked up, fragment)",Increase in trypan blue-stained cells over basal,"[3]; 1000 nM, 16 hr",1.5 fold
same,IC50,"[2]; C59 cells, 4 h at 15° C.",0.5 to 0.7 µM
same,IC50 relative to hPTH(1-84) and hPTH(19-84),[2]; OC cells,roughly 15 fold
same,Downregulation of CPTHR binding,[4]; 1 μM,No downregulation
same,Binding and activation of the PTH1R,[6],neither bind nor activate
C[C@H](CCC(=O)O)C[C@H](C)C[C@H](C)C(=O)/C=C(\O)[C@H](C)C[C@H](C)C/C=C/[C@@H](C)[C@@H](O)[C@@H](C)[C@@H](O)C[C@@H]1CC[C@@](C)([C@H]2CC[C@@](C)([C@@H](C)O)O2)O1 [ionomycin],"Radioligand binding, % of controls after drug removal",[4],100%
same,Reduction of specific binding,[4]; 1 μM,71±3%
IGF-1: IGF-1,Downregulation of CPTHR binding,[4],No downregulation
